From ChEMBL document CHEMBL5385849, “Discovery of 1-hydroxy-2-methylquinolin-4(1H)-one derivatives as new cytochrome bd oxidase inhibitors for tuberculosis therapy” (Eur J Med Chem, 2023)

System: Mycobacterium tuberculosis
Assay: Inhibition of Mycobacterium tuberculosis harboring cydAB mutant inverted-membrane vesicle cytochrome bd oxidase assessed as reduction in oxygen consumption rate at 10 uM measured upto 4 days by Methylene blue dye based assay
Assay type: cell membranes
Details: time <= 4.0 day

| Compound | inhibition |
| --- | --- |
| Cc1c(Cc2ccc(OC(F)(F)F)cc2)c(=O)c2ccccc2n1O | 82% |
| CC(C)=CCC/C(C)=C/CC/C(C)=C/Cc1c(C)[nH]c2ccccc2c1=O [AURACHIN D] | 55% |
